Several values for one entry are separate records, joined by “and”; a condition that tells them apart may be missing. Equal values may be shown once.
Assays:
[1] = test system: CD4^+CD25^− and CD4^+CD25^int cells; experiment: MTT cytotoxicity assay on CD25 negative/intermediate CD4+ T cells; type: cell-based, human
Experimental: After 48 hours of incubation, 20 μL MTT from a 5 mg/mL stock was added and incubation was continued for another 4 hours. The formazan crystals were solubilized by adding 100 μL isopropanol/0.1 M hydrochloric acid and incubating at 37° C. for 2 hours. The absorbance of the formazan product was measured on an enzyme-linked immunosorbent assay (ELISA) plate reader at 570 nm.
Interferon-γ and IL-4 ELISPOT analyses were performed using PBMC obtained prior to, during, and after vaccination. PBMC were cultured overnight in complete RPMI 1640 medium. CD4^+ and CD8^+ T cells were isolated from PBMC by negative depletion (Miltenyi). After blocking, 1×10^5 T cells and 1×10^4 RNA-transfected DC were added to each well of 96-well nitrocellulose plates (Multiscreen-IP, Millipore) precoated with 2 μg/ml Interferon-γ capture antibody (Endogen) or with IL-4 capture antibody (BD Biosciences Pharmingen). Plates were incubated for 20 hours at 37° C., and biotinylated Interferon-γ detection antibody (Endogen) or biotinylated IL-4 antibody (BD Biosciences Pharmingen) was added to each well. […] After washing, spots were counted using an automated ELISPOT reader (Carl Zeiss). […] Then, 50 μl of supernatant was harvested, and release of ^51Cr was measured with a scintillation counter. […] Incorporation of thymidine was determined using a liquid scintillation counter.

[2] = test system: responder cells (PBMC) in MLR; experiment: Allogeneic DC-stimulated mixed lymphocyte reaction (MLR) proliferation; type: cell-based, human
[3] = test system: CD4^+/CD25^high Treg; experiment: Depletion of regulatory T cells in vivo (FACS of patient PBMC); design: species or system human; settings: for Treg Depletion (%): single i.v. dose 18 μg/kg
Experimental: Four-color FACS analyses were performed using a Becton Dickinson FACSCalibur™. Fluorochrome-conjugated antibodies including anti-CD4 FITC, anti-CD45RO, anti-CD45RA (Caltag, Burlingame, Calif.); anti-CD25 PE (Becton Dickinson, California, CA) as well as isotypic control antibodies (Caltag, Burlingame, Calif.) were used for T-cell staining. Expression of GITR was analyzed by staining T cells with anti-GITR antibody (R&D Systems, Minneapolis, Minn.) followed by secondary goat anti-mouse antibody conjugated to APC. For determination of intracellular CTLA-4 expression, T cells were permeabilized with 0.5% saponin, fixed with 4% paraformaldehyde and then stained with biotinylated anti-CD152 (Becton Dickinson, California, CA) followed by APC-strepavidin (Becton Dickinson, California, CA). A total of 1×10^6 cells were suspended in staining buffer (PBS with 1% FCS, 2 mM EDTA, and 0.1% sodium azide) and incubated for 20 minutes at 4° C. with the antibody. Data were analyzed and presented using CELLQuest™ software. Sorting of CD4^+CD25^neg, CD4^+CD25^int and CD4^+CD25^high T cells was performed with a BD FACSAria™ cell sorter after antibody labeling. For detection of cytokine secretion, isolated CD4^+ T cells were activated for 16 hours in the presence of autologous mRNA-transfected DC. Cytokine secretion was measured using c Th1/Th2 cytokine cytometric bead arrays according to the manufacturer's protocol (BD Biosciences Pharmingen, San Diego, Calif.).
Using these methods, the degree of regulatory T cell depletion efficacy in the four subjects treated on the clinical protocol was determined.
Four-color FACS analyses were performed using the following antibodies: anti-CD4 FITC, anti-CD45RO, anti-CD45RA (Caltag), anti-CD25 PE (Becton Dickinson), anti-GITR (R&D Systems), and isotypic controls (Caltag). Sorting of CD4^+/CD25^neg, CD4^+/CD25^int and CD4^+/CD25^high T cells was performed using a Becton Dickinson FACSAria™ cell sorter after antibody labeling. For intracellular detection of FoxP3, cells were permeabilized with 30 μg/ml digitonin for 45 minutes at 4° C. Subsequently, cells were stained with anti-FoxP3 antibody (Abcam), and R-PE anti-goat IgG in the presence of 10 μg/ml digitonin for 30 minutes at 4° C. Following staining, cells were fixed and analyzed by FACS. For intracellular CTLA-4 detection, T cells were permeabilized, fixed, and stained with biotinylated anti-CD152 (Becton Dickinson) followed by APC-streptavidin (Becton Dickinson). A total of 1×10^6 cells was suspended in staining buffer (PBS with 1% FCS, 2 mM EDTA, and 0.1% sodium azide) and incubated for 20 minutes at 4° C. with the antibody.

denileukin diftitox [DAB389IL-2]
concentration above which cell death occurred in CD4^+CD25^− and CD4^+CD25^int cells [1]: higher than 10 nM
cell death of CD4^+CD25^− and CD4^+CD25^int cells ([1]; concentrations up to 10 nM): did not result in significant cell death
proliferation of responder cells ([2]; DAB389IL-2 added two days after initiation of the MLR): completely abrogated the proliferation of responder cells
inhibitory effect of Treg added to MLR ([2]; pre-incubation of Treg with DAB389IL-2 5 nM): significantly abrogated their inhibitory effect
Treg Depletion (%) ([3]; Example 1, per patient, four days after treatment): 74% and 88% and 37% and 77%
Treg Depletion (%) ([3]; Example 1, per patient, four days after treatment, listed as DAB 389 IL-2): 74% and 88% and 37% and 77%
Treg Depletion (%) ([3]; Example 2, per patient, 4 days after infusion): 74% and 72% and 68% and 76% and 57% and 26% and 35%
effect on CD25^neg/int subsets ([3]; total CD25^pos cells after DAB389IL-2): CD25^neg/int subsets were unaffected
Treg restored in the peripheral T-cell pool ([3]; within two months): approximately 75%

Source: patent US20060002932A1, “Methods and compositions for enhancement of immunity by in vivo depletion of immunosuppressive cell activity” (priority 2004, published 2006)
